The results in this text go back to patent publication US10899754B2, “Modulators of indoleamine 2,3-dioxygenase” (GLAXOSMITHKLINE INTELLECTUAL PROPERTY DEVELOPMENT LIMITED, priority 2016, dated 2021).

Molecules are shown by their SMILES.

In data set [1] the test system is human peripheral blood mononuclear cells (PBMC). As to the kind of experiment: PBMC cytotoxicity assay (CellTiter-Glo). Format: cell-based. Conditions: 2 days, pCC50. The procedure: (§1) Compounds of the present invention were tested via high-throughput cellular assays utilizing detection of kynurenine via mass spectrometry and cytotoxicity as end-points. For the mass spectrometry and cytotoxicity assays, human peripheral blood mononuclear cells (PBMC) (PB003F; AllCells®, Alameda, Calif.) were stimulated with human interferon-γ (IFN-γ) (Sigma-Aldrich Corporation, St. Louis, Mo.) and lipopolysaccharide from Salmonella minnesota (LPS) (Invivogen, San Diego, Calif.) to induce the expression of indoleamine 2, 3-dioxygenase (IDO1). Compounds with IDO1 inhibitory properties decreased the amount of kynurenine produced by the cells via the tryptophan catabolic pathway. Cellular toxicity due to the effect of compound treatment was measured using CellTiter-Glo® reagent (CTG) (Promega Corporation, Madison, Wis.), which is based on luminescent detection of ATP, an indicator of metabolically active cells.
(§2) In preparation for the assays, test compounds were serially diluted 3-fold in DMSO from a typical top concentration of 1 mM or 5 mM and plated at 0.5 μL in 384-well, polystyrene, clear bottom, tissue culture treated plates with lids (Greiner Bio-One, Kremsmünster, Austria) to generate 11-point dose response curves. Low control wells (0% kynurenine or 100% cytotoxicity) contained either 0.5 μL of DMSO in the presence of unstimulated (−IFN-γ/−LPS) PBMCs for the mass spectrometry assay or 0.5 μL of DMSO in the absence of cells for the cytotoxicity assay, and high control wells (100% kynurenine or 0% cytotoxicity) contained 0.5 μL of DMSO in the presence of stimulated (+IFN-γ/+LPS) PBMCs for both the mass spectrometry and cytotoxicity assays.
(§3) Frozen stocks of PBMCs were washed and recovered in RPMI 1640 medium (Thermo Fisher Scientific, Inc., Waltham, Mass.) supplemented with 10% v/v heat-inactivated fetal bovine serum (FBS) (Thermo Fisher Scientific, Inc., Waltham, Mass.), and 1× penicillin-streptomycin antibiotic solution (Thermo Fisher Scientific, Inc., Waltham, Mass.). The cells were diluted to 1,000,000 cells/mL in the supplemented RPMI 1640 medium. 50 μL of either the cell suspension, for the mass spectrometry assay, or medium alone, for the cytotoxicity assay, were added to the low control wells, on the previously prepared 384-well compound plates, resulting in 50,000 cells/well or 0 cells/well respectively. IFN-γ and LPS were added to the remaining cell suspension at final concentrations of 100 ng/ml and 50 ng/ml respectively, and 50 μL of the stimulated cells were added to all remaining wells on the 384-well compound plates. The plates, with lids, were then placed in a 37° C., 5% CO2 humidified incubator for 2 days.
(§4) Following incubation, the 384-well plates were removed from the incubator and allowed to equilibrate to room temperature for 30 minutes. For the cytotoxicity assay, CellTiter-Glo® was prepared according to the manufacturer's instructions, and 40 μL were added to each plate well. After a twenty minute incubation at room temperature, luminescence was read on an EnVision® Multilabel Reader (PerkinElmer Inc., Waltham, Mass.). For the mass spectrometry assay, 10 μL of supernatant from each well of the compound-treated plates were added to 40 μL of acetonitrile, containing 10 μM of an internal standard for normalization, in 384-well, polypropylene, V-bottom plates (Greiner Bio-One, Kremsmünster, Austria) to extract the organic analytes. Following centrifugation at 2000 rpm for 10 minutes, 10 μL from each well of the acetonitrile extraction plates were added to 90 μL of sterile, distilled H2O in 384-well, polypropylene, V-bottom plates for analysis of kynurenine and the internal standard on the RapidFire 300 (Agilent Technologies, Santa Clara, Calif.) and 4000 QTRAP MS (SCIEX, Framingham, Mass.). MS data were integrated using Agilent Technologies' RapidFire Integrator software, and data were normalized for analysis as a ratio of kynurenine to the internal standard. […]

In data set [2] the target is indoleamine 2, 3-dioxygenase (IDO1) (Homo sapiens, UniProt P14902). As to the kind of experiment: IDO1 PBMC RapidFire MS assay (kynurenine detection by mass spectrometry). The settings on record: human PBMC stimulated with IFN-γ and LPS, 2 days, pIC50, read-out: PBMC PXC50 (converted). Format: cell-based. Also on record: to induce the expression of indoleamine 2, 3-dioxygenase (IDO1); host or cells: human PBMC stimulated with IFN-gamma and LPS. As for the experimental part:
IDO1 PBMC RapidFire MS Assay
as §1, §2, §3, §4

Sequence of indoleamine 2, 3-dioxygenase (IDO1) (P14902 whole entry): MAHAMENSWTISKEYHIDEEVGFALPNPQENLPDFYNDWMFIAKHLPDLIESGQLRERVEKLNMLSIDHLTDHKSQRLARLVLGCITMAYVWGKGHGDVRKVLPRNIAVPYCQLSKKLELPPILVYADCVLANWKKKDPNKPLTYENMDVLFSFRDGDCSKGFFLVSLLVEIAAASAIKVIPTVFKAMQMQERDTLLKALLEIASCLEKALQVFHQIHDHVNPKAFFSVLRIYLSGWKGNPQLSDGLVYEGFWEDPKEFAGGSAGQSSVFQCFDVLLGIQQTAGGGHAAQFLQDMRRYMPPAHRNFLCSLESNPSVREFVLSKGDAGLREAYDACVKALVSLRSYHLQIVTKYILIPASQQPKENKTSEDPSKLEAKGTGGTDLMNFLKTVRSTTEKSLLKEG

Take `CO[C@H](C)CN(CC(C)C)c1ccc([C@H](C)CC(=O)O)cc1Nc1nc(C(F)(F)F)ns1` [Example 96, (R)-3-(4-(isobutyl((R)-2-methoxypropyl)amino)-3-((3-(trifluoromethyl)-1,2,4-thiadiazol-5-yl)amino)phenyl)butanoic Acid]: the “PBMC TOX PXC50” value in data set [1] is on record as less than 5. The IC50 in data set [2] is 10 nM.
For the compound `CC(C)CN(c1ccc(C(C)CC(=O)O)cc1Nc1nnc(C(=O)N(C)C)s1)C1CCCCC1` (centres unmarked) [example 244, 3-{4-[cyclohexyl(2-methylpropyl)amino]-3-{[5-(dimethylcarbamoyl)-1,3,4-thiadiazol-2-yl]amino}phenyl}butanoic acid], in data set [1], the “PBMC TOX PXC50” value was 5.7. The IC50 in data set [2] was 50.1 nM.
In the case of `CC(C)CN(CC(C)C)c1ccc(C(C)CC(=O)O)cc1Nc1nnnn1C` (centres unmarked) [example 252, 3-{4-[bis(2-methylpropyl)amino]-3-[(1-methyl-1H-1,2,3,4-tetrazol-5-yl)amino]phenyl}butanoic acid], the “PBMC TOX PXC50” value in data set [1] was less than 5. In addition, in data set [2], the IC50 is 3980 nM.
The matching figures for `Cc1ccc(CC(=O)Nc2cc(-c3ccccc3C(=O)O)ccc2N(CC(C)C)C23CC(C2)C3)cc1` [example 268, 4′-({bicyclo[1.1.1]pentan-1-yl}(2-methylpropyl)amino)-3′-[2-(4-methylphenyl)acetamido]-[1,1′-biphenyl]-2-carboxylic acid]: less than 5 and 2000 nM.
In the case of `CC(C)CN(c1ccc([C@H](C)CC(=O)O)cc1Nc1n[nH]c(C#N)n1)C1CCCCC1` [Example 83, (R)-3-(3-((5-cyano-1H-1,2,4-triazol-3-yl)amino)-4-(cyclohexyl(isobutyl)amino)phenyl)butanoic Acid], the “PBMC TOX PXC50” value in data set [1] is listed as less than 5. In data set [2], the IC50 is 7.94 nM.
Turning to `CO[C@H]1CC[C@H](N(CC(C)C)c2ccc([C@H](C)CC(=O)O)cc2Nc2n[nH]c(C(F)(F)F)n2)CC1` [Example 52], in data set [1], the “PBMC TOX PXC50” value is given as less than 5. In data set [2], the IC50 was 10 nM.
`CC(C)CN(CCCCCN)c1ccc([C@H](C)CC(=O)O)cc1Nc1nc(C(F)(F)F)ns1` [example 229, (3R)-3-{4-[(5-aminopentyl)(2-methylpropyl)amino]-3-{[3-(trifluoromethyl)-1,2,4-thiadiazol-5-yl]amino}phenyl}butanoic acid]: the “PBMC TOX PXC50” value in data set [1] was less than 5. In addition, the IC50 in data set [2] was 50.1 nM.
For `COC(=O)c1c[nH]c(Nc2cc([C@H](C)CC(=O)O)ccc2N(CC(C)C)C2CCCCC2)n1` [Example 77, (R)-3-(4-(cyclohexyl(isobutyl)amino)-3-((4-(methoxycarbonyl)-1H-imidazol-2-yl)amino)phenyl)butanoic Acid], the “PBMC TOX PXC50” value in data set [1] is given as less than 5. Also, the IC50 in data set [2] was 1.58 nM.
Turning to `CO[C@H]1CC[C@@H](N(CC(C)C)c2ccc([C@H](C)CC(=O)O)cc2Nc2nc(C(F)(F)F)c[nH]2)CC1` [Example 62, (R)-3-(4-(isobutyl((cis)-4-methoxycyclohexyl)amino)-3-((4-(trifluoromethyl)-1H-imidazol-2-yl)amino)phenyl)butanoic Acid], the “PBMC TOX PXC50” value in data set [1] is less than 5. Moreover, the IC50 in data set [2] is 3.98 nM.
On the same counts, the results for `CC(C)CN(c1ccc([C@H](C)CC(=O)O)cc1Nc1ccc(C(F)(F)F)nc1)C1CCOCC1` [Example 7, (R)-3-(4-(isobutyl(tetrahydro-2H-pyran-4-yl)amino)-3-((6-(trifluoromethyl)pyridin-3-yl)amino)phenyl)butanoic Acid] are less than 5 and 0.631 nM.
The matching figures for `CNC(=O)c1nnc(Nc2cc([C@H](C)CC(=O)O)ccc2N(CC(C)C)C2CCOCC2)s1` [example 257, (3R)-3-(3-{[5-(methylcarbamoyl)-1,3,4-thiadiazol-2-yl]amino}-4-[(2-methylpropyl)(oxan-4-yl)amino]phenyl)butanoic acid]: less than 5 and 31.6 nM.
Consider `CC(C)CN(c1ccc([C@H](C)CC(=O)O)cc1Nc1n[nH]c(C(N)=O)n1)C1CCCCC1` [Example 84, (R)-3-(3-((5-carbamoyl-1H-1,2,4-triazol-3-yl)amino)-4-(cyclohexyl(isobutyl)amino)phenyl)butanoic Acid], for which, in data set [1], the “PBMC TOX PXC50” value is listed as less than 5. Besides, in data set [2], the IC50 is 7.94 nM.
In the case of `CC(C)CN(c1ccc([C@H](C)CC(=O)O)cc1Nc1n[nH]c(Cl)n1)C1CCOCC1` [Example 34, (R)-3-(3-((5-Chloro-1H-1,2,4-triazol-3-yl)amino)-4-(isobutyl(tetrahydro-2H-pyran-4-yl)amino)phenyl)butanoic Acid], the “PBMC TOX PXC50” value in data set [1] is listed as less than 5. Besides, in data set [2], the IC50 was 6.31 nM.
The matching figures for `CO[C@H]1CC[C@@H](N(CC(C)C)c2ccc([C@H](C)CC(=O)O)cc2Nc2nc(C(F)(F)F)ns2)CC1` [Example 43, (R)-3-(4-(isobutyl((1s,4S)-4-methoxycyclohexyl)amino)-3-((3-(trifluoromethyl)-1,2,4-thiadiazol-5-yl)amino)phenyl)butanoic Acid]: less than 5 and 0.631 nM.
As for `COCCC(=O)N1CCC(N(CC(C)C)c2ccc([C@H](C)CC(=O)O)cc2Nc2nc(C(F)(F)F)ns2)CC1` [Example 68, (R)-3-(4-(isobutyl(1-(3-methoxypropanoyl)piperidin-4-yl)amino)-3-((3-(trifluoromethyl)-1,2,4-thiadiazol-5-yl)amino)phenyl)butanoic Acid], the “PBMC TOX PXC50” value in data set [1] was less than 5. In addition, in data set [2], the IC50 was 2 nM.
In the case of `CC(C)CN(CCCCCNC(=O)c1ccc(C2(C(F)(F)F)N=N2)cc1)c1ccc([C@H](C)CC(=O)O)cc1Nc1nc(C(F)(F)F)ns1` [example 255, (3R)-3-{4-[(2-methylpropyl)[5-({4-[3-(trifluoromethyl)-3H-diazirin-3-yl]phenyl}formamido)pentyl]amino]-3-{[3-(trifluoromethyl)-1,2,4-thiadiazol-5-yl]amino}phenyl}butanoic acid], in data set [1], the “PBMC TOX PXC50” value is on record as less than 4.3. The IC50 in data set [2] is 20 nM.
As for `CO[C@H]1CC[C@H](N(CC(C)C)c2ccc([C@H](C)CC(=O)O)cc2Nc2n[nH]c(C(N)=O)n2)CC1` (racemic) [example 223, (3RS)-3-{3-[(5-carbamoyl-1H-1,2,4-triazol-3-yl)amino]-4-[(2-methylpropyl)[(1rs&,4rs&)-4-methoxycyclohexyl]ami-no]phenyl}butanoic acid], in data set [1], the “PBMC TOX PXC50” value is on record as less than 5. For the same compound, the IC50 in data set [2] is 501 nM.
Take `CC(C)CN(c1ccc([C@H](C)CC(=O)O)cc1Nc1nc(C(F)(F)F)ns1)C1CCN(c2nc(C(F)(F)F)ns2)CC1` [Example 95, (R)-3-(4-(isobutyl(1-(3-(trifluoromethyl)-1,2,4-thiadiazol-5-yl)piperidin-4-yl)amino)-3-((3-(trifluoromethyl)-1,2,4-thiadiazol-5-yl)amino)phenyl)butanoic Acid]: the “PBMC TOX PXC50” value in data set [1] was less than 5. Further, in data set [2], the IC50 was 1.58 nM.
The matching figures for `CO[C@H]1CC[C@@H](N(CC(C)C)c2ccc([C@H](C)CC(=O)O)cc2Nc2ccc(C#N)cn2)CC1` [Example 53, (R)-3-(3-((5-cyanopyridin-2-yl)amino)-4-(isobutyl((1s,4S)-4-methoxycyclohexyl)amino)phenyl)butanoic Acid]: less than 5 and 1.58 nM.
